Test results taken from patent US12171852B1, “Composition and methods for regulating melanogenesis” (Sytheon Ltd, priority 2023, dated 2024).

How the values were obtained:
[1] = test system: B16-F1 melanocytes; assay: Melanin synthesis in melanocytes, melanin colorimetric competitive ELISA; assay type: cell-based; settings: for % Melanin Inhibition: 200 μg/ml, water control = 100; for Melanin-inhibitory activity (in words): colorimetric quantification, ZDBL at 200 μg/ml
[2] = test system: mushroom tyrosinase; assay: In vitro tyrosinase inhibition assay (L-DOPA conversion); assay type: biochemical; settings: for Tyrosinase enzyme activity (% of Control): 80 min, L-DOPA 5 mM; for Inhibition of tyrosinase activity (in words): particularly at the higher concentrations
Experimental: Louis, MO, catalog #K3125) was employed as the positive control/reference substance. […] [Biosci Biotechnol Biochem, 67:1587-1589, 2003]. […] The final concentration used in the assay was 16 U/well (80 U/ml). Tyrosinase substrate L-DOPA (Acros Organics, Fair Lawn, NJ) was used at 5 mM. Reactions were conducted in a 96 well format and were initiated by adding the enzyme to the reaction mix and allowed to react for 80 min. […] The increase of the melanin output was calculated using the formula: ΔM=[A450 nm(t=80 min.)+Tyrosinase]−[A450 nm(t=80 min.)−Tyrosinase] where ΔM is increase of melanin, A is absorbance for a given experimental condition, t is a time point and 450 nm is the wavelength used for the quantification of melanin and “-Tyrosinase” is the background reading of identical experimental conditions without the enzyme.

[3] = test system: microphthalmia-associated transcription factor (MITF) gene expression; assay: MITF gene expression, transcriptome analysis of treated EpiDermFT tissues; assay type: cell-based; settings: EpiDermFT tissue, 3 μl of 100 μg/ml solution, 24 hours
Experimental: EpiDermFT tissues were obtained from MatTek and equilibrated overnight in the cell culture incubator. […] All stock solutions were prepared at 20 mg/ml in DMSO and further dilutions were made in sterile distilled water. The proposed dosage used was based on cytotoxicity data. Water was used as the negative control. The treated tissue samples were incubated for a period of 24 hours following which RNA was extracted and prepared for transcriptome analysis for assessing the impact, if any, on the gene expression of microphthalmia-associated transcription factor (MITF). Sequencing data were generated by Azenta Life Sciences (HiSeq 2×150 bp). Analyses were performed using raw FastQ files provided by Azenta.

[4] = molecular target: NADPH Oxidase 4 (NOX-4) (Homo sapiens (Human), UniProt Q9NPH5); assay: NADPH oxidase (NOX-4) inhibitory activity, NOX4 ELISA kit; assay type: biochemical
Experimental: A study was conducted on the direct impact of Zn di-(di-n-butyryl lysinate) (ZDBL), Ca di-(di-n-butyryl lysinate), and Na butyrate on NADPH Oxidase 4 (NOX-4) enzyme. In this study, 0.01 gram of sample was dissolved in 1 ml propanediol to make solution. For the analysis, a 1 to 2 serial dilution of the stock solution of the sample using buffer was made to determine the IC50 values. The analysis was done following NOX4 ELISA kit (My BioSource, Catalog #MBS2505108) protocol.

[5] = molecular target: Thioredoxin reductase 1 (Homo sapiens (Human), UniProt Q16881); assay: Thioredoxin reductase 1 (TrxR1) inhibitory activity; assay type: biochemical; settings: average of two readings; 1 hour incubation at room temperature
Experimental: Thioredoxin is known to influence melanogenesis substrates [Y Lu et al., Modulating skin colour: role of thioredoxin and glutathione systems in regulating melanogenesis, Bioscience Reports, 2021; 41 BSR20210427]. […] Test materials were prepared by dissolving 0.01 gm of each test material in 1 ml ethanol to make stock solutions. […] The plate was read at 412 nm for 30 minutes to determine the inhibition.

[6] = test system: MITF gene expression; assay: MITF gene expression validated by real-time quantitative PCR in EpiDermFT tissues; assay type: cell-based; settings: versus water control
Experimental: As validation of the findings above a second analysis of the tissue samples was performed this time using cDNA prepared using High-Capacity RNA-to-cDNA™ Kit (Thermo Fisher Scientific). Expression of the applicable genes was measured by real-time quantitative PCR with the BioRad iCycler iQ Detection System using PCR primers from Realtimeprimers (Elkins Park, PA) and AzuraView GreenFast qPCR Blue Mix LR (Azura Genomics, Raynham, MA). Efficiency ΔΔCt method was used for quantification of results, after the normalization of gene expression to GAPD (a housekeeping gene).

Chain of Thioredoxin reductase 1 (Q16881 151-649): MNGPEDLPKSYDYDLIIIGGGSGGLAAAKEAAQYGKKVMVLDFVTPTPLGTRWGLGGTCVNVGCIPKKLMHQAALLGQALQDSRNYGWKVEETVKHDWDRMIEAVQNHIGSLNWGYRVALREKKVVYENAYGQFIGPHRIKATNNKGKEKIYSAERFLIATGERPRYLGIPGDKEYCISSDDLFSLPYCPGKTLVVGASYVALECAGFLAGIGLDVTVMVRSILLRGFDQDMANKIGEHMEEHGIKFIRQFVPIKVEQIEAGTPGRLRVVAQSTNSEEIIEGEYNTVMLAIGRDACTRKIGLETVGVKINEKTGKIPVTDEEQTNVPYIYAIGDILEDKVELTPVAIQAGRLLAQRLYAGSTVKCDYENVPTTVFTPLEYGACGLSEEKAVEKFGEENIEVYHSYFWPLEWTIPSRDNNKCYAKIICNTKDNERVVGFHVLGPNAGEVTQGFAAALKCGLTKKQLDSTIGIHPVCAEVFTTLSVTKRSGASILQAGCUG

For `CCCC(=O)NCCCCC(NC(=O)CCC)C(=O)[O-].CCCC(=O)NCCCCC(NC(=O)CCC)C(=O)[O-].[Ca+2]` (centres unmarked) [CDBL, calcium di-(di-n-butyryl lysinate)], the “% Melanin Inhibition” value ([1]; three days) was 0%, the “Melanin-inhibitory activity (in words)” value [1] was “no significant effect” and the “Tyrosinase enzyme activity (% of Control)” value ([2]; 10 μg/ml) was 85 (p = 0.10) % of Control. The “Tyrosinase enzyme activity (% of Control)” value ([2]; 50 μg/ml) was 89 (p = 0.13) % of Control, the “Tyrosinase enzyme activity (% of Control)” value ([2]; 200 μg/ml) was 99 (p = 0.86) % of Control and the “Inhibition of tyrosinase activity (in words)” value [2] was “ineffective”. For the same molecule, the “Fold change/mean FPKM = 2.2 (MITF gene expression)” value [3] was 0.41, the “MITF gene expression effect (in words)” value ([3]; listed as Ca di-(di-n-butyryl lysinate) (CDBL)) was “No effect” and the “MITF gene expression effect (in words)” value ([3]; listed as Ca di-n-butyryl lysinate) was “not significantly altered”. For the same molecule, the “IC50 value, NADPH Oxidase (NOX-4)” value [4] was 240 µg/mL, the “IC50 value, Thioredoxin Reductase 1” value [5] was 4.53 µg/mL and the “Comments (MITF gene expression by PCR)” value [6] was “No Effect”.

For `NCCCC[C@H](N)C(=O)[O-].NCCCC[C@H](N)C(=O)[O-].[Ca+2]` [Ca lysinate (CLY), Ca lysinate], the “Fold change/mean FPKM = 2.2 (MITF gene expression)” value [3] was −0.21, the “MITF gene expression effect (in words)” value [3] was “No effect” and the “MITF gene expression effect (in words)” value ([3]; listed as Ca lysinate) was “not significantly altered”. The “Comments (MITF gene expression by PCR)” value [6] was “No Effect”.

With `CCCCCCc1ccc(O)cc1O` [Hexylresorcinol] the “Melanin inhibition, positive control” value ([1]; 5 μg/ml, three days) was “*Hexylresorcinol (5 μg/ml) was used as a positive control: Melanin inhibition was found fo be 17% of control (p = 0.007) confirming the validation of the protocol”.

For `O=c1cc(CO)occ1O` [Kojic acid, kojic acid], the “Tyrosinase enzyme activity (% of control), positive control” value ([2]; 200 μM) was “*Kojic acid (200 μM) was used as a positive control: Tyrosinase enzyme activity was found to be 39% of control (p = 0.00) confirming the validation of the protocol”.

With `NCCCC[C@H](N)C(=O)O` [Lysine (LYS), Lysine] the “Fold change/mean FPKM = 2.2 (MITF gene expression)” value [3] was 0.38, the “MITF gene expression effect (in words)” value [3] was “No effect” and the “MITF gene expression effect (in words)” value ([3]; listed as lysine) was “not significantly altered”.

In the case of `CCCC(=O)[O-].[Na+]` [Na butyrate], the “IC50 value, NADPH Oxidase (NOX-4)” value [4] is reported as 170 µg/mL.

For `NCCCC[C@H](N)C(=O)[O-].NCCCC[C@H](N)C(=O)[O-].[Zn+2]` [Zn lysinate (ZLY), Zn lysinate], the “% Melanin Inhibition” value ([1]; three days) was 0%, the “Melanin-inhibitory activity (in words)” value [1] was “no significant effect” and the “Tyrosinase enzyme activity (% of Control)” value ([2]; 10 μg/ml) was 80 (p = 0.02) % of Control. The “Tyrosinase enzyme activity (% of Control)” value ([2]; 50 μg/ml) was 90 (p = 0.95) % of Control, the “Tyrosinase enzyme activity (% of Control)” value ([2]; 200 μg/ml) was 90 (p = 0.23) % of Control and the “Inhibition of tyrosinase activity (in words)” value [2] was “ineffective”. For the same molecule, the “Fold change/mean FPKM = 2.2 (MITF gene expression)” value [3] was 0.17, the “MITF gene expression effect (in words)” value [3] was “No effect” and the “MITF gene expression effect (in words)” value ([3]; listed as Zn lysinate) was “not significantly altered”. For the same molecule, the “Comments (MITF gene expression by PCR)” value [6] was “No Effect”.
